Results as given in US10952390B2, “Catnip cultivar ‘CR3’” (Rutgers, The State University of New Jersey, priority 2016, dated 2021).

What was measured:
Format in all cases: in vivo
[1] = test system: Aedes aegypti; test: one-choice mosquito landing rate inhibition assay
Experimental: The clonal population serving as source material for the essential oil was the ‘CR3’ cultivar. The hydro-distilled essential oil from this population was used as the source for the crude essential oil treatment and was partitioned for subsequent fractionation and nepetalactone purification. The clones were transplanted to the field. Immediately before the plants were in full flower, they were harvested and dried at 37° C. with an onsite Powell walk-in forced air heat dryer kept under low heat conditions. Once the plants had lost all moisture, under the temperature and pressure conditions, the leaves and flowers were separated from the stems for hydro-distillation. Essential oils were extracted by hydro-distilling 60 g of dried N. cataria leaves and flowers. They were distilled in a 2 L round bottom flask for 3 hours in 1 L of water and the essential oil was collected in a Clevenger-type trap. The essential oils were then prepared and analyzed by GC/MS. The CR3 essential oil contained about 29% Z, E-nepetalactone and about 59% E, Z-nepetalactone (% of the total essential oil). […]
(§1) Repellency was determined by a one-choice landing assay that uses the amount of mosquito landings to calculate the overall effectiveness of the candidate repellent. […] Time lapse photography recorded one image every five seconds. […]

[2] = test system: Anopholes gambiae; test: one-choice mosquito landing rate inhibition assay
Experimental: The clonal population serving as source material for the essential oil was the ‘CR3’ cultivar. The hydro-distilled essential oil from this population was used as the source for the crude essential oil treatment and was partitioned for subsequent fractionation and nepetalactone purification. The clones were transplanted to the field. Immediately before the plants were in full flower, they were harvested and dried at 37° C. with an onsite Powell walk-in forced air heat dryer kept under low heat conditions. Once the plants had lost all moisture, under the temperature and pressure conditions, the leaves and flowers were separated from the stems for hydro-distillation. Essential oils were extracted by hydro-distilling 60 g of dried N. cataria leaves and flowers. They were distilled in a 2 L round bottom flask for 3 hours in 1 L of water and the essential oil was collected in a Clevenger-type trap. The essential oils were then prepared and analyzed by GC/MS. The CR3 essential oil contained about 29% Z, E-nepetalactone and about 59% E, Z-nepetalactone (% of the total essential oil).
as §1

[3] = test system: Dermacentor variabilis; test: one-choice tick filter paper repellency assay (petri dish arena); conditions: D. variabilis, 15 minutes, three replicates
Experimental: (§2) An arena was constructed out of petri dishes to establish a dose response curve of a repellent ('CR3′ essential oil or DEET) filter paper by monitoring the total amount of tick positions over 15 minutes (1 image every 15 sec) and calculating percent repellency. ‘CR3’ oils were extracted with acetone as described in Example 3. In a one-choice assay, the repellent was applied to half of the filter paper and placed into the petri dish where the ticks are placed, the petri dish cover applied, and the number of ticks counted applied to the repellent zone. In the two-choice repellency test (see FIG. 6), DEET and a repellent (‘CR3’ essential oil) were applied to different sides of the filter paper and the ticks are counted in reference to the test repellent, not DEET. Total Tick positions=(# ticks in petri dish)×(60 images) Percent repellency=[(# of ticks in the repellent zone)/(Total Tick positions)]*100 Three replicates were performed for each treatment. Complete repellency was defined as repelling greater than 95% of the ticks.

[4] = test system: Ixodes scapularis; test: as above; conditions: I. scapularis, 15 minutes, three replicates
Experimental: as §2

[5] = 0.01% of the treatment applied to the filter paper

CCN(CC)C(=O)c1cccc(C)c1 [DEET]
reduction of A. aegypti landing [1, 5]: about 32% | decrease of mosquito landings (repellency) ([1]; A. aegypti, treatment at 1% on filter paper): > 95% | reduction of A. gambiae landing [2, 5]: about 35% | decrease of mosquito landings (repellency) ([2]; A. gambiae, treatment at 1% on filter paper): > 95% | percent repellency ([3]; applied at 0.1%): 86.06±10.2 | percent repellency ([3]; applied at 1%): 99.31±1.00 | percent repellency ([4]; applied at 0.1%): 59.16±8.94 | percent repellency ([4]; applied at 1%): 99.79±0.36
